According to US11252963B2, “Pesticidally active pyrazole derivatives” (SYNGENTA PARTICIPATIONS AG, priority 2017, dated 2022):
Where two headings read alike, the source gives them in different places.

Legend:
Type in all cases: in vivo
[1] = tested on: Plutella xylostella (Diamond Back Moth); assay: Plutella xylostella (Diamond Back Moth): feeding/contact activity; settings: 120 h
Experimental: Plutella xylostella (Diamond Back Moth): Feeding/Contact Activity
24-well microtiter plates with artificial diet were treated with aqueous test solutions prepared from 10′000 ppm DMSO stock solutions by pipetting. After drying, the plates were infested with L2 larvae (10 to 15 per well). The samples were assessed for mortality 5 days after infestation.

[2] = tested on: Euschistus heros (Neotropical Brown Stink Bug); assay: Euschistus heros (Neotropical Brown Stink Bug): feeding/contact activity; settings: 120 h
Experimental: Euschistus heros (Neotropical Brown Stink Bug): Feeding/Contact Activity
Soybean leaves on agar in 24-well microtiter plates were sprayed with aqueous test solutions prepared from 10,000 ppm DMSO stock solutions. After drying the leaves were infested with N2 nymphs. The samples were assessed for mortality 5 days after infestation.

[3] = tested on: Thrips tabaci (Onion Thrips); assay: Thrips tabaci (Onion Thrips): feeding/contact activity; settings: foliar, 144 h
Experimental: Thrips tabaci (Onion Thrips): Feeding/Contact Activity
Sunflower leaf discs were placed on agar in 24-well microtiter plates and sprayed with aqueous test solutions prepared from 10′000 ppm DMSO stock solutions. After drying the leaf discs were infested with a thrips population of mixed ages. The samples were assessed for mortality 6 days after infestation.

[4] = tested on: Tetranychus urticae (Two-Spotted Spider Mite); assay: Tetranychus urticae (Two-Spotted Spider Mite): feeding/contact activity; settings: foliar, 192 h, read-out: mortality on mixed population (mobile stages)
Experimental: Tetranychus urticae (Two-Spotted Spider Mite): Feeding/Contact Activity
Bean leaf discs on agar in 24-well microtiter plates were sprayed with aqueous test solutions prepared from 10′000 ppm DMSO stock solutions. After drying the leaf discs were infested with a mite population of mixed ages. The samples were assessed for mortality on mixed population (mobile stages) 8 days after infestation.

[5] = tested on: Spodoptera littoralis (Egyptian Cotton Leaf Worm); assay: Spodoptera littoralis (Egyptian Cotton Leaf Worm): feeding/contact activity; settings: foliar, 72 h
Experimental: Spodoptera littoralis (Egyptian Cotton Leaf Worm): Feeding/Contact Activity
Cotton leaf discs were placed onto agar in 24-well microtiter plates and sprayed with aqueous test solutions prepared from 10′000 ppm DMSO stock solutions. After drying the leaf discs were infested with five L1 larvae. The samples were assessed for mortality 3 days after infestation.

[6] = tested on: Myzus persicae (Green Peach Aphid); assay: Myzus persicae (Green Peach Aphid): feeding/contact activity; settings: foliar, 144 h
Experimental: Myzus persicae (Green Peach Aphid): Feeding/Contact Activity
Sunflower leaf discs were placed onto agar in a 24-well microtiter plate and sprayed with aqueous test solutions prepared from 10,000 ppm DMSO stock solutions. After drying, the leaf discs were infested with an aphid population of mixed ages. The samples were assessed for mortality 6 days after infestation.

[7] = tested on: Diabrotica balteata (Corn root worm); assay: Diabrotica balteata (Corn root worm) mortality test on sprayed maize sprouts; settings: 96 h
Experimental: Diabrotica balteata (Corn root worm):
Maize sprouts placed onto an agar layer in 24-well microtiter plates were treated with aqueous test solutions prepared from 10′000 ppm DMSO stock solutions by spraying. After drying, the plates were infested with L2 larvae (6 to 10 per well). The samples were assessed for mortality 4 days after infestation.

[8] = application rate 200 ppm, artificial diet treated by pipetting, L2 larvae, assessed 5 days after infestation, read-out: mortality
[9] = application rate 200 ppm, soybean leaves sprayed, N2 nymphs, assessed 5 days after infestation, read-out: mortality
[10] = application rate 200 ppm, sunflower leaf discs sprayed, thrips population of mixed ages, assessed 6 days after infestation, read-out: mortality
[11] = application rate 200 ppm, bean leaf discs sprayed, mite population of mixed ages, assessed 8 days after infestation
[12] = application rate 200 ppm, cotton leaf discs sprayed, L1 larvae, assessed 3 days after infestation, read-out: mortality
[13] = application rate 200 ppm, sunflower leaf discs sprayed, aphid population of mixed ages, assessed 6 days after infestation, read-out: mortality
[14] = application rate 200 ppm, maize sprouts sprayed, L2 larvae, assessed 4 days after infestation, read-out: mortality

Measured: mortality at 200 ppm

COCN(C(=O)c1cc(-c2cnn(-c3c(OC(F)F)c(C(F)(F)C(F)(F)F)nn3C)c2)cnc1Cl)C1(C#N)CC1 [Compound 18, 2-chloro-N-(1-cyanocyclopropyl)-5-[1-[4-(difluoromethoxy)-2-methyl-5-(1,1,2,2,2-pentafluoroethyl)pyrazol-3-yl]pyrazol-4-yl]-N-(methoxymethyl)pyridine-3-carboxamide]
≥ 80%: [1]; [8] | [2]; [9] | [3]; [10] | [4]; [11] | [5]; [12] | [6]; [13] | [7]; [14]

Cn1nc(C(F)(F)C(F)(F)F)c(OC(F)F)c1-n1cc(-c2ccc(Cl)c(C(=O)N(CC3CC3)C3(C#N)CC3)c2)cn1 [Compound 9, 2-chloro-N-(1-cyanocyclopropyl)-N-(cyclopropylmethyl)-5-[1-[4-(difluoromethoxy)-2-methyl-5-(1,1,2,2,2-pentafluoroethyl)pyrazol-3-yl]pyrazol-4-yl]benzamide]
≥ 80%: [1]; [8] | [2]; [9] | [3]; [10] | [4]; [11] | [5]; [12] | [6]; [13] | [7]; [14]

CC(=O)N(C(=O)c1cc(-c2cnn(-c3c(OC(F)F)c(C(F)(F)C(F)(F)F)nn3C)c2)ccc1Cl)C1(C#N)CC1 [Compound 8, N-acetyl-2-chloro-N-(1-cyanocyclopropyl)-5-[1-[4-(difluoromethoxy)-2-methyl-5-(1,1,2,2,2-pentafluoroethyl)pyrazol-3-yl]pyrazol-4-yl]benzamide]
≥ 80%: [1]; [8] | [2]; [9] | [4]; [11] | [5]; [12] | [6]; [13] | [7]; [14]

C#CCN(C(=O)c1cc(-c2cnn(-c3c(OC(F)F)c(C(F)(F)C(F)(F)F)nn3C)c2)ccc1Cl)C1CC1 [Compound 2, 2-chloro-N-cyclopropyl-5-[1-[4-(difluoromethoxy)-2-methyl-5-(1,1,2,2,2-pentafluoroethyl)pyrazol-3-yl]pyrazol-4-yl]-N-prop-2-ynyl-benzamide]
≥ 80%: [1]; [8] | [2]; [9] | [3]; [10] | [4]; [11] | [5]; [12] | [6]; [13] | [7]; [14]

CC(C)C(=O)N(C(=O)c1cc(-c2cnn(-c3c(OC(F)F)c(C(F)(F)C(F)(F)F)nn3C)c2)ccc1Cl)C1(C#N)CC1 [Compound 12, 2-chloro-N-(1-cyanocyclopropyl)-5-[1-[4-(difluoromethoxy)-2-methyl-5-(1,1,2,2,2-pentafluoroethyl)pyrazol-3-yl]pyrazol-4-yl]-N-(2-methylpropanoyl)benzamide]
≥ 80%: [1]; [8] | [2]; [9] | [4]; [11] | [5]; [12] | [6]; [13] | [7]; [14]

CCOCN(C(=O)c1cc(-c2cnn(-c3c(OC(F)F)c(C(F)(F)C(F)(F)F)nn3C)c2)cnc1Cl)C1(C#N)CC1 [Compound 14, 2-chloro-N-(1-cyanocyclopropyl)-5-[1-[4-(difluoromethoxy)-2-methyl-5-(1,1,2,2,2-pentafluoroethyl)pyrazol-3-yl]pyrazol-4-yl]-N-(ethoxymethyl)pyridine-3-carboxamide]
≥ 80%: [1]; [8] | [2]; [9] | [3]; [10] | [4]; [11] | [5]; [12] | [6]; [13] | [7]; [14]

CC(C)CN(C(=O)c1cc(-c2cnn(-c3c(OC(F)F)c(C(F)(F)C(F)(F)F)nn3C)c2)ccc1Cl)C1(C#N)CC1 [Compound 11, 2-chloro-N-(1-cyanocyclopropyl)-5-[1-[4-(difluoromethoxy)-2-methyl-5-(1,1,2,2,2-pentafluoroethyl)pyrazol-3-yl]pyrazol-4-yl]-N-isobutyl-benzamide]
≥ 80%: [1]; [8] | [2]; [9] | [3]; [10] | [5]; [12] | [6]; [13] | [7]; [14]

Cn1nc(C(F)(F)C(F)(F)F)c(OC(F)F)c1-n1cc(-c2cnc(Cl)c(C(=O)N(C(=O)C3CC3)C3(C#N)CC3)c2)cn1 [Compound 19, 2-chloro-N-(1-cyanocyclopropyl)-N-(cyclopropanecarbonyl)-5-[1-[4-(difluoromethoxy)-2-methyl-5-(1,1,2,2,2-pentafluoroethyl)pyrazol-3-yl]pyrazol-4-yl]pyridine-3-carboxamide]
≥ 80%: [1]; [8] | [2]; [9] | [3]; [10] | [4]; [11] | [5]; [12] | [6]; [13] | [7]; [14]

Cn1nc(C(F)(F)C(F)(F)F)c(OC(F)F)c1-n1cc(-c2ccc(Cl)c(C(=O)N(CC(F)(F)F)C3(C#N)CC3)c2)cn1 [Compound 10, 2-chloro-N-(1-cyanocyclopropyl)-5-[1-[4-(difluoromethoxy)-2-methyl-5-(1,1,2,2,2-pentafluoroethyl)pyrazol-3-yl]pyrazol-4-yl]-N-(2,2,2-trifluoroethyl)benzamide]
≥ 80%: [1]; [8] | [3]; [10] | [5]; [12] | [6]; [13] | [7]; [14]

CC(C)OC(=O)N(C(=O)c1cc(-c2cnn(-c3c(OC(F)F)c(C(F)(F)C(F)(F)F)nn3C)c2)ccc1Cl)C1(C#N)CC1 [Compound 5, isopropyl N-[2-chloro-5-[1-[4-(difluoromethoxy)-2-methyl-5-(1,1,2,2,2-pentafluoroethyl)pyrazol-3-yl]pyrazol-4-yl]benzoyl]-N-(1-cyanocyclopropyl)carbamate]
≥ 80%: [1] | [2]; in Glycine max | [3] | [4] | [5] | [6] | [7]

COC(=O)N(C(=O)c1cc(-c2cnn(-c3c(OC(F)F)c(C(F)(F)C(F)(F)F)nn3C)c2)ccc1Cl)C1(C#N)CC1 [Compound 7, methyl N-[2-chloro-5-[1-[4-(difluoromethoxy)-2-methyl-5-(1,1,2,2,2-pentafluoroethyl)pyrazol-3-yl]pyrazol-4-yl]benzoyl]-N-(1-cyanocyclopropyl)carbamate]
≥ 80%: [1] | [2]; in Glycine max | [4] | [5] | [6] | [7]
